{"source": "patent EP4740946A1", "about": "“METHOD FOR TREATING PROSTATE CANCER” (Jiangsu Hengrui Pharmaceuticals Co., Ltd., priority 2023, dated 2025)", "type_in_all_cases": "in vivo, human", "key": {"[1]": {"assay": "Phase I clinical study, clinical pharmacology: food effect study (fasting vs postprandial pharmacokinetics)", "protocol": "(§1) • Tablets were orally administered in preset dose group of 30 mg, 90 mg, 180 mg, 360 mg, 540 mg or 720 mg, with one treatment cycle every 28 days. Administration was continuous until disease progression or the occurrence of unacceptable toxicity. Tablets were orally administered once daily, within 30 minutes after breakfast each morning, for consecutive administration. If intensive PK blood sampling was scheduled on a given day, the subject was forbidden to drink water 1 h and fasted 4 h before and after drug administration.\nThere were a total of 9 patients in the food effect study."}, "[2]": {"assay": "Phase I clinical study, clinical safety (DLT, TEAEs, treatment-related AEs)", "from_the_text": "• Incidence of dose limiting toxicity (DLT) • MTD (if available) and RP2D;\n(§2) • Incidence, severity (graded according to CTCAE v5.0), and correlation with the study drug of adverse events (AEs) and serious adverse events (SAEs), also including abnormalities in vital signs, electrocardiogram, and laboratory tests; • PK parameters of the compound of formula I after single/multiple administrations, including but not limited to: • single administration parameters: peak plasma concentration (Cmax), time to peak (Tmax), area under the concentration-time curve from time zero to the last detectable concentration time point t (AUC0-t), area under the concentration-time curve from time zero to infinity (AUC0-inf) (if applicable), half-life (t1/2) (if applicable), apparent volume of distribution (Vz/F) (if applicable), and apparent clearance (CL/F) (if applicable); • multiple administration parameters: steady-state peak concentration (Cmax, ss), time to peak (Tmax, ss), steady-state trough concentration (Cmin, ss), area under the steady-state plasma concentration-time curve (AUCss), and drug accumulation ratio (Rac). • Pharmacokinetic (PK) of midazolam: pharmacokinetic parameters of midazolam in patients after administration of a microdose of midazolam before (D-1) and after (D15) multiple oral administrations of the compound of formula I, including: Tmax, Cmax, AUC0-t, AUCO-∞, t1/2, CL/F and Vz/F. • Efficacy endpoints: objective response rate (ORR), disease control rate (DCR), duration of response (DoR), radiographic progression-free survival (rPFS), PSA response rate at week 12, proportions of subjects with a decrease in PSA of ≧50% and ≧30% from baseline throughout study treatment, time to PSA progression, and overall survival (OS).\nas §1\nA total of 26 tumour subjects were enrolled in this study, with 13 subjects in the dose escalation phase. There were 1, 4, 4, 3, and 1 subject(s) in 30 mg, 90 mg, 180 mg, 360 mg, and 540 mg dose groups, respectively. […] One subject was enrolled in the 540 mg dose group and remained in DLT observation, and no dose-limiting toxicity (DLT) was observed. There were 13 subjects in the dose expansion phase, and all were in the 180 mg dose group."}, "PSA": {"tested_on": "PSA", "assay": "Phase I clinical study, clinical effectiveness (PSA response)", "from_the_text": "as §2, §1\nA total of 17 subjects in the study received at least one post-baseline PSA test, with 1, 4, 9, and 3 subjects in 30 mg, 90 mg, 180 mg, and 360 mg dose groups, respectively. 8 of 17 subjects evaluable for PSA response experienced a PSA decrease."}, "[3]": {"conditions": "180 mg oral administration under fasting conditions, patients with mCRPC"}, "[4]": {"conditions": "postprandial absorption compared with fasting state, food effect study"}}}
{"smiles": "C[C@H]1CC2(CCN(c3ccc(C(=O)N4CCC(CN5CCN(c6cccc(N[C@H]7CCC(=O)NC7=O)c6)CC5)CC4)cc3F)CC2)CN1c1ccc(C#N)c(Cl)c1", "note": "[compound of formula I]", "values": [{"measurement": "geometric mean (% geometric coefficient of variation) of apparent volume of distribution", "setting": "[1]; [3]", "result": "1260 (90.7) L"}, {"measurement": "geometric mean (% geometric coefficient of variation) of clearance", "setting": "[1]; [3]", "result": "21.5 (83.4) L/h"}, {"measurement": "median time to peak", "setting": "[1]; [3]", "result": 3, "unit": "h"}, {"measurement": "half-life", "setting": "[1]; male, human, plasma, 180 mg oral administration under fasting conditions, patients with mCRPC, food effect study (9 patients), read-out: mean half-life (± standard deviation) (converted)", "result": "40.8 ± 4.37", "unit": "h"}, {"measurement": "AUC, postprandial versus fasting state", "setting": "[1]; [4]", "result": 2.54, "unit": "fold"}, {"measurement": "Cmax, postprandial versus fasting state", "setting": "[1]; [4]", "result": 3.06, "unit": "fold"}, {"measurement": "time to peak delayed (postprandial versus fasting)", "setting": "[1]; postprandial compared with fasting state", "result": 3, "unit": "h"}, {"measurement": "time to peak, postprandial", "setting": "[1]; postprandial state", "result": "about 6 h"}, {"measurement": "subjects who experienced AEs associated with formula I", "setting": "[2]; 8 of 26 subjects", "result": 30.8, "unit": "%"}, {"measurement": "subjects who experienced TEAEs", "setting": "[2]; 9 of 26 tumour subjects enrolled", "result": 34.6, "unit": "%"}, {"measurement": "dose-limiting toxicity (DLT)", "setting": "[2]; dose escalation phase, 13 subjects, 30 mg, 90 mg, 180 mg, 360 mg and 540 mg dose groups, oral once daily", "result": "no DLT was observed"}, {"measurement": "grade 4/5 AE", "setting": "[2]; during the study, 26 subjects", "result": "No grade 4/5 AE occurred"}, {"measurement": "subjects who experienced grade 3 TRAE", "setting": "[2]; one of 26 subjects, decreased neutrophil count and decreased white blood cell count", "result": 3.8, "unit": "%"}, {"measurement": "subjects who experienced grade 3 TEAEs", "setting": "[2]; three of 26 subjects", "result": 11.5, "unit": "%"}, {"measurement": "subjects who experienced a PSA decrease", "setting": "PSA; 180 mg dose group, 6 of the 9 subjects", "result": 66.7, "unit": "%"}, {"measurement": "subjects achieving PSA30 (a reduction in serum PSA level of ≧ 30% from baseline during treatment)", "setting": "PSA; 180 mg dose group, 9 subjects", "result": 3, "unit": "subjects"}, {"measurement": "subjects achieving PSA90 (a reduction in serum PSA level of ≧ 90% from baseline during treatment)", "setting": "PSA; 180 mg dose group, 9 subjects", "result": 1, "unit": "subject"}, {"measurement": "subjects who experienced a PSA decrease", "setting": "PSA; of 17 subjects evaluable for PSA response, 30 mg, 90 mg, 180 mg and 360 mg dose groups", "result": 8, "unit": "subjects"}]}
